# Biological target: T1, human Nav1.8 (Homo sapiens, UniProt Q9Y5Y9)
# T1 construct: expressed in transfected cells; host or cells: HEK293 (HEK293-Nav1.8)
# Assay: Nav1.8 sodium channels assay, QPatch 48 HTX electrophysiology in HEK293-Nav1.8 cells
# Type: cell-based
# Conditions: at least one set of experimental runs; read-out: average pIC50 value against Nav1.8 (converted)
# Method in brief: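 IC50 came from 6-8 point curves of P2 current amplitude, normalized to baseline and a positive reference, and corrected for run-down using vehicle-only wells. Automated patch clamp used HEK293-Nav1.8 (with Navβ1 and TREK1) at pH 7.4 outside and CsF-based solution inside. An 8 s inactivating step at −46 mV preceded the 0 mV test pulse, repeated at 0.07 Hz.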
# T1 sequence (Q9Y5Y9 whole entry): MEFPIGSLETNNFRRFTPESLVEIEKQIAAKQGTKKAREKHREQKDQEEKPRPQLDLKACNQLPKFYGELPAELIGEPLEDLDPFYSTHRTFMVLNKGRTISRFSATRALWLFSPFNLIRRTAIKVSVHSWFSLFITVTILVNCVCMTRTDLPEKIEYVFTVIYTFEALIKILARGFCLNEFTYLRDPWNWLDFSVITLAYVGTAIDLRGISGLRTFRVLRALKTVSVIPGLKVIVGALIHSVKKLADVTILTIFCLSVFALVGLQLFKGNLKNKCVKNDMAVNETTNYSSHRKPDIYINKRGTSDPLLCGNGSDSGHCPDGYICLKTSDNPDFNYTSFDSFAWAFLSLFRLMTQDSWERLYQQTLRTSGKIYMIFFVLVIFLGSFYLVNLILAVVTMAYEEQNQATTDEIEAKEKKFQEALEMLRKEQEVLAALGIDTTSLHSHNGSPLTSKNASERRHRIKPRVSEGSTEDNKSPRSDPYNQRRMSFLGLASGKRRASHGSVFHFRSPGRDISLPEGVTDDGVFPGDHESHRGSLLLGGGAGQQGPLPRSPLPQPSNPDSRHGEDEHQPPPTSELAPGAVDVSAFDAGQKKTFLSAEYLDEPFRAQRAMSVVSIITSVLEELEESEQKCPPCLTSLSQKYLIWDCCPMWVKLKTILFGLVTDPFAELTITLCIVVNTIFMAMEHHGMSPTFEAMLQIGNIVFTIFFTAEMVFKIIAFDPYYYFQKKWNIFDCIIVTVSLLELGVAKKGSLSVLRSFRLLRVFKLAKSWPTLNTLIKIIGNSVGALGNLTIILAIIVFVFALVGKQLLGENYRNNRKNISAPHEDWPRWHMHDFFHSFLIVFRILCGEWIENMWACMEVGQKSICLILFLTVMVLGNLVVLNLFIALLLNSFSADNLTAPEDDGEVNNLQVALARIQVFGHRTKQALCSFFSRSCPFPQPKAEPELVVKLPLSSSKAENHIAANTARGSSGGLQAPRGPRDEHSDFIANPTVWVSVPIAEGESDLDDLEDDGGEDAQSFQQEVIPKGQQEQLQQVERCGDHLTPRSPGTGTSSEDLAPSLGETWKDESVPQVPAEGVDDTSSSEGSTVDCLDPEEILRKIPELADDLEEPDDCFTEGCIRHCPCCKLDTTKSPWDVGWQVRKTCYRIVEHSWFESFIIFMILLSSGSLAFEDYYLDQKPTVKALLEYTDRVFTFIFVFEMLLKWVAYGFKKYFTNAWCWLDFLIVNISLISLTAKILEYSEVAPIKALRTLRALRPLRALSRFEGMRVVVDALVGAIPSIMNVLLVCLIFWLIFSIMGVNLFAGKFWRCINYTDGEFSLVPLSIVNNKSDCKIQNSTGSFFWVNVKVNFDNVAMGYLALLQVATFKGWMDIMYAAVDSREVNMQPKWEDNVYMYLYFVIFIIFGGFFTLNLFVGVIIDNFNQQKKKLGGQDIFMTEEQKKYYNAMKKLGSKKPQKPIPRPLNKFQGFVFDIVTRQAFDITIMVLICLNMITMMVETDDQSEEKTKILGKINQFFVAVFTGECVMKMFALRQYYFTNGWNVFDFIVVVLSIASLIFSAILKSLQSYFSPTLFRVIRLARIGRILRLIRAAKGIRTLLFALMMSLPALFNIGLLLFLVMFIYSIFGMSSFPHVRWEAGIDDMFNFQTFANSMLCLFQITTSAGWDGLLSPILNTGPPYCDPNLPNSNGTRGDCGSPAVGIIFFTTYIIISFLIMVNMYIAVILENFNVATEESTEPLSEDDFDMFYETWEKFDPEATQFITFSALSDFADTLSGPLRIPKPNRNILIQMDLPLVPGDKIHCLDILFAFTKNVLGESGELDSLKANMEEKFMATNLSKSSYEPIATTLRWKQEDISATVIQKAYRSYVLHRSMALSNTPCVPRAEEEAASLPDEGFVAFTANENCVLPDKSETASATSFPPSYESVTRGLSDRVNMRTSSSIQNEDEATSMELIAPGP
# T1 sequence (Q07699 19-218 partner): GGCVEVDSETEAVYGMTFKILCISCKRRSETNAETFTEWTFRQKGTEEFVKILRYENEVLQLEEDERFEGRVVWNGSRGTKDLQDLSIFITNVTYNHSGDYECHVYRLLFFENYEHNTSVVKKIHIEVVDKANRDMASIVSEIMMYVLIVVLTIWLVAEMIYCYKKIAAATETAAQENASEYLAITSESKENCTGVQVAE
row,IC50 [nM],Compound
1,126 to 631,"Cc1cc(F)ccc1N1CN(c2ccc(=O)[nH]c2C)C(=O)c2ccc(C3COC3)cc21 [Example 265, 1-(4-Fluoro-2-methylphenyl)-3-(2-methyl-6-oxo-1,6-dihydropyridin-3-yl)-7-(oxetan-3-yl)-2,3-dihydroquinazolin-4(1H)-one]"
2,794 to 7940,"Cc1cc(O)ccc1N1CN(c2ccc(F)cc2C)c2ccc(C(F)(F)F)cc2C1=O [Example 266, 1-(4-Fluoro-2-methylphenyl)-3-(4-hydroxy-2-methylphenyl)-6-(trifluoromethyl)-2,3-dihydroquinazolin-4(1H)-one]"
3,794 to 7940,"Cc1cc(O)ccc1N1CN(c2ccc(F)cc2C)c2cc(C(F)(F)F)ccc2C1=O [Example 267, 1-(4-Fluoro-2-methylphenyl)-3-(4-hydroxy-2-methylphenyl)-7-(trifluoromethyl)-2,3-dihydroquinazolin-4(1H)-one]"
4,126 to 631,Cc1cc(F)ccc1N1CN(C2CCC(=O)NC2)C(=O)c2ccc(C(F)(F)F)cc21 (stereo not drawn) [Example 268]
5,≤ 100,"CC1=C(N2CN(c3ccc(F)cc3C)c3cc(C(F)(F)F)ccc3C2=O)CCC(=O)N1 [Example 269, 1-(4-fluoro-2-methylphenyl)-3-(2-methyl-6-oxo-1,4,5,6-tetrahydropyridin-3-yl)-7-(trifluoromethyl)-2,3-dihydroquinazolin-4(1H)-one]"
6,126 to 631,"Cc1cc(F)ccc1N1CN(C2CNC(=O)NC2)C(=O)c2ccc(C(F)(F)F)cc21 [Example 270, 1-(4-fluoro-2-methylphenyl)-3-(2-oxohexahydro-pyrimidin-5-yl)-7-(trifluoromethyl)-2,3-dihydroquinazolin-4(1H)-one]"
7,≤ 100,"CC1=C(N2CN(c3ccc(F)cc3C)c3cc(C(F)(F)F)ccc3C2=O)CNC(=O)N1 [Example 271, 1-(4-fluoro-2-methylphenyl)-3-(6-methyl-2-oxo-1,2,3,4-tetrahydro-pyrimidin-5-yl)-7-(trifluoromethyl)-2,3-dihydroquinazolin-4(1H)-one]"
8,126 to 631,"Cc1cc(N)ncc1N1CN(c2ccc(F)cc2C)c2ccc(C(F)(F)F)cc2C1=O [Example 277, 3-(6-Amino-4-methylpyridin-3-yl)-1-(4-fluoro-2-methylphenyl)-6-(trifluoromethyl)-2,3-dihydroquinazolin-4(1H)-one]"

# The next lines start with the compound.
row,Compound,IC50 [nM]
1,"Cc1cc(F)ccc1N1CN(c2cc[nH]c(=O)c2C)C(=O)c2cc(C(F)(F)F)ccc21 [Example 238, 1-(4-fluoro-2-methylphenyl)-3-(3-methyl-2-oxo-1,2-dihydropyridin-4-yl)-6-(trifluoromethyl)-2,3-dihydroquinazolin-4(1H)-one]",794 to 7940
2,"Cc1cc(F)ccc1N1CN(c2ccc(=O)[nH]c2C)Cc2cc(C(F)(F)F)ccc21 [Example 239, 5-(1-(4-fluoro-2-methylphenyl)-6-(trifluoromethyl)-1,4-dihydroquinazolin-3(2H)-yl)-6-methylpyridin-2(1H)-one]",126 to 631
3,"Cc1[nH]c(=O)ccc1N1CN(c2ccccc2CC(F)(F)F)c2ccc(C(F)(F)F)cc2C1=O [Example 240, 3-(2-Methyl-6-oxo-1,6-dihydropyridin-3-yl)-1-(2-(2,2,2-trifluoroethyl)phenyl)-6-(trifluoromethyl)-2,3-dihydroquinazolin-4(1H)-one]",≤ 100
4,"Cc1cc(F)ccc1N1CN(c2ccc(=O)[nH]c2C)C(=O)c2ccc(OC(F)F)nc21 [Example 241, 7-(difluoromethoxy)-1-(4-fluoro-2-methylphenyl)-3-(2-methyl-6-oxo-1,6-dihydropyridin-3-yl)-2,3-dihydropyrido[2,3-d]pyrimidin-4(1H)-one]",126 to 631
5,"Cc1cc(F)ccc1N1CN(c2ccc(=O)[nH]c2C)C(=O)c2cc(F)c(C#N)cc21 [Example 242, 6-fluoro-1-(4-fluoro-2-methylphenyl)-3-(2-methyl-6-oxo-1,6-dihydropyridin-3-yl)-4-oxo-1,2,3,4-tetrahydroquin-azoline-7-carbonitrile]",≤ 100
6,"CCc1cc(F)ccc1N1CN(c2ccncc2C)C(=O)c2cc(Cl)c(C#N)cc21 [Example 243, 6-chloro-1-(2-ethyl-4-fluorophenyl)-3-(3-methylpyridin-4-yl)-4-oxo-1,2,3,4-tetrahydroquin-azoline-7-carbonitrile]",126 to 631
7,"Cc1c[n+]([O-])ccc1N1CN(c2ccc(F)cc2C)c2cc(C(F)F)c(Cl)cc2C1=O [Example 244, 4-(6-Chloro-7-(difluoromethyl)-1-(4-fluoro-2-methylphenyl)-4-oxo-1,4-dihydroquinazolin-3(2H)-yl)-3-methylpyridine 1-oxide]",≤ 100
8,"CCc1cc(F)ccc1N1CN(c2cc[n+]([O-])cc2C)C(=O)c2cc(Cl)c(F)cc21 [Example 245, 4-(6-chloro-1-(2-ethyl-4-fluorophenyl)-7-fluoro-4-oxo-1,4-dihydroquinazolin-3(2H)-y1)-3-methylpyridine 1-oxide]",≤ 100
9,"Cc1c[n+]([O-])ccc1N1CN(c2ccc(OC(F)(F)F)cc2C)c2cc(F)c(Cl)cc2C1=O [Example 246, 4-(6-chloro-7-fluoro-1-(2-methyl-4-(trifluoromethoxy)phenyl)-4-oxo-1,4-dihydroquinazolin-3(2H)-yl)-3-methylpyridine 1-oxide]",≤ 100
10,"CCc1cc(F)ccc1N1CN(c2cc[n+]([O-])cc2C)C(=O)c2cc(Cl)c(C#N)cc21 [Example 247, 4-(6-chloro-7-cyano-1-(2-ethyl-4-fluorophenyl)-4-oxo-1,4-dihydroquinazolin-3(2H)-yl)-3-methylpyridine 1-oxide]",≤ 100
11,"Cc1cc(F)ccc1N1CN(c2ccc(C(N)=O)[n+]([O-])c2)C(=O)c2c1ccc(Cl)c2F [Example 248, 2-carbamoyl-5-(6-chloro-5-fluoro-1-(4-fluoro-2-methylphenyl)-4-oxo-1,4-dihydroquinazolin-3(2H)-yl)pyridine 1-oxide]",794 to 7940
12,"Cc1cc(F)ccc1N1CN(c2ccc[n+]([O-])c2)C(=O)c2cc(C(F)(F)F)ccc21 [Example 249, 3-(1-(4-fluoro-2-methylphenyl)-4-oxo-6-(trifluoromethyl)-1,4-dihydroquinazolin-3(2H)-yl)pyridine 1-oxide]",794 to 7940
13,"Cc1c[n+]([O-])ccc1N1CN(c2ccc(F)cc2C)c2ccc(C(F)(F)F)cc2C1=O [Example 254, 4-(1-(4-fluoro-2-methylphenyl)-4-oxo-6-(trifluoromethyl)-1,4-dihydroquinazolin-3(2H)-yl)-3-methylpyridine 1-oxide]",126 to 631
14,"Cc1cc(N2CN(c3ccc(F)cc3C)c3ccc(C(F)(F)F)cc3C2=O)c[n+]([O-])c1 [Example 255, 3-(1-(4-fluoro-2-methylphenyl)-4-oxo-6-(trifluoromethyl)-1,4-dihydroquinazolin-3(2H)-yl)-5-methylpyridine 1-oxide]",794 to 7940
15,"Cc1c[n+]([O-])ccc1N1CN(c2ccc(OC(F)(F)F)cc2C)c2ccc(C(F)(F)F)cc2C1=O [Example 256, 3-methyl-4-(1-(2-methyl-4-(trifluoromethoxy)phenyl)-4-oxo-6-(trifluoromethyl)-1,4-dihydroquinazolin-3(2H)-yl)pyridine 1-oxide]",≤ 100
16,"Cc1cc(F)ccc1N1CN(c2ccc(=O)[nH]c2N)C(=O)c2cc(C(F)(F)F)ccc21 [Example 257, 3-(2-Amino-6-oxo-1,6-dihydropyridin-3-yl)-1-(4-fluoro-2-methylphenyl)-6-(trifluoromethyl)-2,3-dihydroquinazolin-4(1H)-one]",≤ 100
